Reference: patent US5679677A, “Heterocyclic carbamates, process for their preparation and medicaments” (Luitpold Pharma GmbH, priority 1993, dated 1997)
pIC50: −log10 of the molar value. Entries after “also recorded” stand apart in the source; their conditions may differ. Where a name gives a salt, the structure may show the parent alone.

Biological target: T1, elastase from human granulocytes (Homo sapiens, UniProt P08246)
T1 construct: from tissue; host or cells: human granulocytes
T1 sequence (P08246 30-247 limits assumed): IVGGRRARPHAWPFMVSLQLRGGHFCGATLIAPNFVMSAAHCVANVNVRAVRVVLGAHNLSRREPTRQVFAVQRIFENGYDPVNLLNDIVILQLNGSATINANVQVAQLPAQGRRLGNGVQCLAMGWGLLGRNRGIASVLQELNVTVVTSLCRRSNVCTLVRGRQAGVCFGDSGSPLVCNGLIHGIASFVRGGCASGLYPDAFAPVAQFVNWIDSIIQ
Assay: Inhibition of granulocyte elastase (enzyme inhibition test, substrate L-pyroglutaminyl-L-prolyl-L-valine-p-nitroanilide)
Type: biochemical
Settings: substrate L-pyroglutaminyl-L-prolyl-L-valine-p-nitro-anilide, read-out: IC50 (concentration for 50% inhibition) of granulocytic elastase
Protocol: The inhibition of granulocyte elastase was determined in an enzyme inhibition test using elastase from human granulocytes. In this test the specific substrate L-pyroglutaminyl-[…]-nitro-anilide was used ([…] et al., Scand. J. Lab. Invest. 43 (1983) 427-432). The IC50 values (concentrations for 50% inhibition) are shown in Table 1 for exemplary compounds according to the invention.
`O=C(Oc1ccccc1)n1ncc2ccccc2c1=O` [Example 1, Phenyl 1(2 H)-phthalazinone-N-carboxylate] gave a pIC50 of 6.70.
`CCOC(=O)n1ccc2ccccc2c1=O` [Example 2] gave a pIC50 of 6.52.
`COC(=O)c1ccc(OC(=O)n2nnc3ccccc3c2=O)cc1` [Example 4] showed a pIC50 of 5.08.
`Cc1nn(C(=O)Oc2ccccc2)c(=O)c2ccccc12` [Example 6] showed a pIC50 of 6.12.
With `O=C(Oc1ccccc1)n1c(SCc2ccccc2)nc2ccccc2c1=O` [Example 13] the pIC50 was 5.40.
Compound `CCOC(=O)n1c(SCc2ccccc2)nc2ccccc2c1=O` [Example 14] has a pIC50 of 5.22.
For `CCOC(=O)Oc1cccc2c(=O)n(C(=O)OCC)ccc12` [Example 15, Ethyl 5-ethoxycarbonyloxyisoquinolin-1(2 H)-one-N-carboxylate], the pIC50 was 5.27.

System: not listed separately
Assay: Hygroscopicity of isolated solid
Type: physicochemical
Settings: hydrochloride
In the case of `CN1CCCC(OC(=O)n2ccc3ccccc3c2=O)C1` (stereo not drawn) [Example 19, N'-Methylpiperidin-3-yl isoquinolin-1(2 H)-one-N-carboxylate hydrochloride], the “hygroscopicity / behaviour in air (in words)” value was “very hygroscopic; also recorded: deliquesces in air”.

System: not listed separately
Assay: Antithrombotic action in the tail-bleeding time model on the rat (modified test according to Diness)
Type: in vivo
Settings: groups of 10, oral administration, 200 mg/kg
Protocol: The compound from Example 14 at a dose of 200 mg/kg thus prolonged the bleeding time by 103%.
With `CCOC(=O)n1c(SCc2ccccc2)nc2ccccc2c1=O` [Example 14] the “prolongation of the bleeding time” value was 103%.
